Measurements taken from PMC7932555, “A diffusible signal factor of the intestine dictates Salmonella invasion through its direct control of the virulence activator HilD” (PLoS Pathogens, 2021).
Positions count from the first letter of the chain named.

How the values were obtained:
[1] = target: T1, HilD^N44A (Salmonella typhimurium, UniProt P0CL08, N44A); assay: EMSA of hilA promoter DNA with HilD N44A; format: biochemical; details: 10 nM hilA promoter DNA, 30 μM fatty acid
T1 construct: made in house; host or cells: E. coli BL21 (DE3)
T1 sequence (P0CL08 1-309 N44A): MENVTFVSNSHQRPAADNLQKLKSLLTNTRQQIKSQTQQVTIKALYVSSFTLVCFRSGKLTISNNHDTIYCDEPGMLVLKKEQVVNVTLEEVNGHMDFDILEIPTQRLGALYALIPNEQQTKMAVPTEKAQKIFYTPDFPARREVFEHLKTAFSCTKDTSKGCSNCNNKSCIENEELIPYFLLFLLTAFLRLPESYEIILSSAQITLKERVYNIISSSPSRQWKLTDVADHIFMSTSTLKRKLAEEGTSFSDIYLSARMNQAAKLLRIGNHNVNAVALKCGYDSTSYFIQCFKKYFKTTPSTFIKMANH
Experimental: (§1) These were performed as previously described. Briefly, 10 nM hilA promoter DNA (-286 to +31) was mixed with 150 nM HilD in a binding buffer (100 mM Tris pH 7.5, 10 mM EDTA, 1M KCl, 1 mM DTT, 50% v/v glycerol). Fatty acids or control solvents were added at various concentrations. Binding reaction was performed at room temperature for 1 hour. Dye solution was added to final concentration of 1X and samples were separated on 10% acrylamide gels. DNA was stained using SYBR Safe and visualized in BioRad GelDoc imaging system.

[2] = target: T2, HilD^K293A (Salmonella typhimurium, UniProt P0CL08, K293A); assay: EMSA of hilA promoter DNA with HilD K293A; format: biochemical; details: 10 nM hilA promoter DNA, 30 μM fatty acid
T2 construct: made in house; host or cells: E. coli BL21 (DE3)
T2 sequence (P0CL08 1-309 K293A): T1 sequence (P0CL08 1-309 N44A) with A44N, K293A
Experimental: as §1

[3] = target: T3, wild type HilD (Salmonella typhimurium, UniProt P0CL08); assay: ELISA binding of fatty acid to wild type HilD; details: plates pre-adsorbed with 10 μM fatty acid, non-linear regression
T3 construct: made in house; host or cells: E. coli BL21 (DE3)
T3 sequence (P0CL08 1-309): T1 sequence (P0CL08 1-309 N44A) with A44N
Experimental: (§2) hilD or its mutated sequences were amplified and cloned into pET15b(+) under an N-terminal 6xHis tag. The constructs were transformed into E. coli BL21 (DE3) for expression. Transformants were induced with 5 mM IPTG for 4 hours. Cultures were centrifuged, lysed and treated with TALON beads as described above. Bound protein was eluted by applying 1 ml elution buffer to the columns. Elution was confirmed by SDS-PAGE. Following confirmation, eluted samples were dialyzed overnight in dialysis buffer (50 mM sodium phosphate, 300 mM NaCl, 10% glycerol). Protein concentration and quality were assessed by Bradford estimation and SDS-PAGE.
(§3) 96-well polystyrene plates were coated with 10 μM fatty acid in coating buffer (0.05 M sodium carbonate-bicarbonate, pH 9.3) and incubated overnight at 4°C. Wells were washed three times with PBS, followed by addition of blocking buffer (1% Ficoll 400 in PBS). After blocking, wells were washed three times with PBS, and different concentrations of proteins in blocking buffer were added and incubated at room temperature for 2 hours. […] After color development, reaction was stopped with 1N sulfuric acid and read spectrophotometrically at 490 nm. Binding was analyzed in GraphPad Prism.
(§4) All experiments were repeated twice and data of representative experiment have been shown. Kd was calculated by using Total One-Site binding in GraphPad Prism. […]

[4] = target: T3, wild type HilD; assay: EMSA of hilA promoter DNA with wild type HilD; format: biochemical; details: wild type HilD 150 nM; 10 nM hilA promoter DNA; increasing concentrations or 30 μM fatty acid
Experimental: as §1

[5] = target: T1, HilD^N44A; assay: ELISA binding of fatty acid to HilD N44A
Experimental: as §2, §3, §4

[6] = test system: Salmonella invasion of HEp-2 cells; assay: Invasion of HEp-2 cells by gentamicin protection assay; format: cell-based
Experimental: Invasion was quantified by gentamicin protection assay. HEp-2 cells were seeded into 24-well cell culture plates (~10^5/well) and allowed to attach overnight at 37° C with 5% CO2). Salmonella strains were grown overnight without aeration in LB buffered with 100 mM HEPES, pH 8.0, with antibiotics and fatty acids or control solvent. Overnight cultures were washed with sterile PBS. Bacteria were added to the HEp-2 cell monolayer (MOI 1:10), centrifuged briefly (10 minutes at 200 x g) and incubated for 1 hour at 37°C. Wells were washed three times with sterile PBS followed by addition of media with 200 μg/mL gentamicin and incubated for 1 hour. Cells were then washed three times with sterile PBS and lysed by 0.1% Triton X-100. Intracellular bacteria were enumerated by spreading lysates onto LB agar plates with appropriate selection.

[7] = target: T4, HilD^Q290A (Salmonella typhimurium, UniProt P0CL08, Q290A); assay: EMSA of hilA promoter DNA with HilD Q290A; format: biochemical; details: 10 nM hilA promoter DNA, 30 μM fatty acid
T4 construct: made in house; host or cells: E. coli BL21 (DE3)
T4 sequence (P0CL08 1-309 Q290A): T1 sequence (P0CL08 1-309 N44A) with A44N, Q290A
Experimental: as §1

[8] = Salmonella expressing HilD K293A grown overnight with 20 μM fatty acid
[9] = Salmonella expressing HilD N44A grown overnight with 20 μM fatty acid
[10] = Salmonella expressing wild type HilD grown overnight with 20 μM fatty acid

SMILES	effect on HilD binding to hilA promoter DNA [1]	effect on HilD binding to hilA promoter DNA [2]	Kd [3]	effect on HilD binding to hilA promoter DNA [4]	binding in ELISA (in words) [5]	inhibition of invasion of HEp-2 cells [6, 8]	inhibition of invasion of HEp-2 cells [6, 9]	inhibition of invasion of HEp-2 cells [6, 10]	effect on HilD binding to hilA promoter DNA [7]	inhibition of invasion of HEp-2 cells ([6]; Salmonella expressing HilD Q290A grown overnight with 20 μM fatty acid)
CCCCCCCCCCCCC/C=C\C(=O)O [c2-HDA, cis-2-hexadecenoic acid]	retained its binding of target DNA	remained bound to the hilA promoter	3.5 µM	progressively impaired interaction of wild type HilD with the DNA target	essentially no binding	invaded HEp-2 cells despite the presence of 20 μM c2-HDA	unaffected	8 fold		
CCCCCCCCCCCCC/C=C/C(=O)O [t2-HDA, trans-2-hexadecenoic acid]	did not disrupt DNA binding	efficiently reduced the DNA binding capacity	9.8 µM	efficiently reduced the DNA binding capacity	essentially no binding	2 fold	unaffected	2 fold	did not disrupt DNA binding	had no effect
